According to patent US6737383B1, “Herbicidal oxadiazolidines” (priority 1999, dated 2004):

Legend:
[1] = test system: Alexandergrass; assay: Test D Alexandergrass; assay type: in vivo, Brachiaria plantaginea; settings: Preemergence, 0 to 100 scale
In short: (§1)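 Greenhouse pots, seeds in sandy loam; compounds formulated in non-phytotoxic solvent with surfactant; preemergence treatments went on the soil surface within one day of planting. Injury rated visually 14 to 21 days after application on a 0 (none) to 100 (complete control) scale.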

[2] = test system: common ragweed; assay: Test D common ragweed; assay type: in vivo, Ambrosia elatior; settings: Preemergence, 0 to 100 scale
In short: as §1

[3] = test system: common groundsel; assay: Test D common groundsel; assay type: in vivo, Senecio vulgaris; settings: Preemergence, 0 to 100 scale
In short: as §1

[4] = test system: dallisgrass; assay: Test D dallisgrass; assay type: in vivo, Paspalum dilatatum; settings: Preemergence, 0 to 100 scale
In short: as §1

[5] = test system: goosegrass; assay: Test D goosegrass; assay type: in vivo, Eleusine indica; settings: Preemergence, 0 to 100 scale
In short: as §1

[6] = test system: itchgrass; assay: Test D itchgrass; assay type: in vivo, Rottboellia exaltata; settings: Preemergence, 0 to 100 scale
In short: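 Scoring used a 0–100 visual injury scale, with 0 meaning no effect and 100 complete control, assessed 14–21 days after application alongside untreated pots. Preemergence treatments went onto sandy loam surfaces of separately potted seeds within a day of sowing.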

[7] = test system: Johnson grass; assay: Test D Johnson grass; assay type: in vivo, Sorghum halepense; settings: Preemergence, 0 to 100 scale
In short: as §1

[8] = test system: large crabgrass; assay: Test D large crabgrass; assay type: in vivo, Digitaria sanguinalis; settings: Preemergence, 0 to 100 scale
In short: as §1

[9] = test system: purple nutsedge; assay: Test D purple nutsedge; assay type: in vivo, Cyperus rotundus; settings: Preemergence, 0 to 100 scale
In short: as §1

[10] = test system: sandbur; assay: Test D sandbur; assay type: in vivo, Cenchrus echinatus; settings: Preemergence, 0 to 100 scale
In short: as §1

[11] = test system: Spanishneedles; assay: Test D Spanishneedles; assay type: in vivo, Bidens bipinnata; settings: Preemergence, 0 to 100 scale
In short: as §1

[12] = test system: surinam grass; assay: Test D surinam grass; assay type: in vivo, Brachiaria decumbens; settings: Preemergence, 0 to 100 scale
In short: as §1

[13] = test system: Green foxtail; assay: Test D green foxtail; assay type: in vivo; settings: Preemergence, 0 to 100 scale
In short: as §1

[14] = test system: Green foxtail; assay: Test D green foxtail; assay type: in vivo
In short: as §1

[15] = test system: barnyardgrass; assay: Test A barnyardgrass; assay type: in vivo, Echinochloa crus-galli; settings: 0 to 10 scale where 0 is no effect and 10 is complete control
In short: (§2)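 Injury scored visually after about eleven greenhouse days against untreated plants, 0 = no effect, 10 = complete control. Compounds, formulated in surfactant-containing non-phytotoxic solvent, were applied as preemergence soil drench to sandy loam plantings and as postemergence runoff spray at the 1–2 leaf stage.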

[16] = test system: crabgrass; assay: Test A crabgrass; assay type: in vivo, Digitaria spp.; settings: 0 to 10 scale where 0 is no effect and 10 is complete control
In short: as §2

[17] = test system: morningglory; assay: Test A morningglory; assay type: in vivo, Ipomoea spp.; settings: 0 to 10 scale where 0 is no effect and 10 is complete control
Procedure: (§3) Seeds of barnyardgrass (Echinochloa crus-galli), crabgrass (Digitaria spp.), morningglory (Ipomoea spp.), and velvetleaf (Abutilon theophrasti) were planted into a sandy loam soil and treated preemergence by soil drench with test chemicals formulated in a non-phytotoxic solvent mixture which includes a surfactant At the same time, these crop and weed species were also treated postemergence sprayed to runoff, with test chemicals formulated in the same manner.
(§4) Plants ranged in height from two to eighteen cm and were in the one to two leaf stage for the postemergence treatment. Treated plants and untreated controls were maintained in a greenhouse for approximately eleven days, after which all treated plants were compared to untreated controls and visually evaluated for injury. Plant response ratings, summarized in Table A, are based on a 0 to 10 scale where 0 is no effect and 10 is complete control.

[18] = test system: velvetleaf; assay: Test A velvetleaf; assay type: in vivo, Abutilon theophrasti; settings: 0 to 10 scale where 0 is no effect and 10 is complete control
Procedure: as §3, §4

[19] = Rate 16 g/ha, 0 no injury, 100 complete control
[20] = Rate 32 g/ha, 0 no injury, 100 complete control
[21] = Rate 64 g/ha, 0 no injury, 100 complete control
[22] = Rate 125 g/ha, 0 no injury, 100 complete control
[23] = Rate 64 g/ha, Preemergence; 0 to 100 scale, 0 no injury, 100 complete control
[24] = Rate 125 g/ha, Preemergence; 0 to 100 scale, 0 no injury, 100 complete control
[25] = Rate 500 g/ha, Preemergence; 0 to 100 scale

C=CCn1c(=O)on(C(=O)N(c2ccc(F)cc2F)C(C)C)c1=O [Compound 151]
Plant response rating, Alexandergrass [1, 19]: 40
Plant response rating, Alexandergrass [1, 20]: 40
Plant response rating, Alexandergrass [1, 21]: 98
Plant response rating, Alexandergrass [1, 22]: 98
Plant response rating, Alexandergrass ([1]; Rate 250 g/ha): 100
Plant response rating, Alexandergrass ([1]; Rate 500 g/ha): 100
Plant response rating, C. ragweed [2, 19]: 0
Plant response rating, C. ragweed [2, 20]: 0
Plant response rating, C. ragweed [2, 21]: 0
Plant response rating, C. ragweed [2, 22]: 0
Plant response rating, C. ragweed ([2]; Rate 250 g/ha): 20
Plant response rating, C. ragweed ([2]; Rate 500 g/ha): 20
Plant response rating, Com. groundsel [3, 19]: 0
Plant response rating, Com. groundsel [3, 20]: 0
Plant response rating, Com. groundsel [3, 21]: 0
Plant response rating, Com. groundsel [3, 22]: 100
Plant response rating, Com. groundsel ([3]; Rate 250 g/ha): 100
Plant response rating, Com. groundsel ([3]; Rate 500 g/ha): 100
Plant response rating, Dallisgrass [4, 19]: 100
Plant response rating, Dallisgrass [4, 20]: 85
Plant response rating, Dallisgrass [4, 21]: 100
Plant response rating, Dallisgrass [4, 22]: 100
Plant response rating, Dallisgrass ([4]; Rate 250 g/ha): 100
Plant response rating, Dallisgrass ([4]; Rate 500 g/ha): 100
Plant response rating, Goosegrass [5, 19]: 85
Plant response rating, Goosegrass [5, 20]: 85
Plant response rating, Goosegrass [5, 21]: 100
Plant response rating, Goosegrass [5, 22]: 100
Plant response rating, Goosegrass ([5]; Rate 250 g/ha): 100
Plant response rating, Goosegrass ([5]; Rate 500 g/ha): 100
Plant response rating, Itchgrass [6, 19]: 0
Plant response rating, Itchgrass [6, 20]: 0
Plant response rating, Itchgrass [6, 21]: 75
Plant response rating, Itchgrass [6, 22]: 85
Plant response rating, Itchgrass ([6]; Rate 250 g/ha): 100
Plant response rating, Itchgrass ([6]; Rate 500 g/ha): 100
Plant response rating Johnsongrass [7, 19]: 0
Plant response rating Johnsongrass [7, 20]: 0
Plant response rating Johnsongrass [7, 21]: 40
Plant response rating Johnsongrass [7, 22]: 50
Plant response rating Johnsongrass ([7]; Rate 250 g/ha): 50
Plant response rating Johnsongrass ([7]; Rate 500 g/ha): 100
Plant response rating Large crabgrass [8, 19]: 98
Plant response rating Large crabgrass [8, 20]: 98
Plant response rating Large crabgrass [8, 21]: 100
Plant response rating Large crabgrass [8, 22]: 100
Plant response rating Large crabgrass ([8]; Rate 250 g/ha): 100
Plant response rating Large crabgrass ([8]; Rate 500 g/ha): 100
Plant response rating, Purple nutsedge [9, 19]: 0
Plant response rating, Purple nutsedge [9, 20]: 0
Purple nutsedge plant response rating [9, 21]: 0
Purple nutsedge plant response rating [9, 22]: 30
Plant response rating, Purple nutsedge ([9]; Rate 250 g/ha): 65
Plant response rating, Purple nutsedge ([9]; Rate 500 g/ha): 70
Plant response rating, Sandbur [10, 19]: 0
Plant response rating, Sandbur [10, 20]: 20
Sandbur plant response rating [10, 21]: 90
Sandbur plant response rating [10, 22]: 100
Plant response rating, Sandbur ([10]; Rate 250 g/ha): 100
Plant response rating, Sandbur ([10]; Rate 500 g/ha): 100
Plant response rating, Spanishneedles [11, 19]: 0
Plant response rating, Spanishneedles [11, 20]: 0
Spanishneedles plant response rating [11, 21]: 0
Spanishneedles plant response rating [11, 22]: 0
Plant response rating, Spanishneedles ([11]; Rate 250 g/ha): 0
Plant response rating, Spanishneedles ([11]; Rate 500 g/ha): 40
Plant response rating, Surinam grass [12, 19]: 30
Plant response rating, Surinam grass [12, 20]: 30
Surinam grass plant response rating [12, 21]: 85
Surinam grass plant response rating [12, 22]: 100
Plant response rating, Surinam grass ([12]; Rate 250 g/ha): 100
Plant response rating, Surinam grass ([12]; Rate 500 g/ha): 100
Plant response rating, Green foxtail ([13]; Rate 250 g/ha): 100
Plant response rating, Green foxtail ([13]; Rate 500 g/ha): 100
Plant response rating, Green foxtail ([14]; Preemergence; Rate 16 g/ha; 0 to 100 scale, 0 no injury, 100 complete control): 100
Plant response rating, Green foxtail ([14]; Preemergence; Rate 32 g/ha; 0 to 100 scale, 0 no injury, 100 complete control): 100
Plant response rating, Green foxtail ([14]; Rate 16 g/ha; Preemergence; 0 to 100 scale, 0 no injury, 100 complete control): 100
Plant response rating, Green foxtail ([14]; Rate 32 g/ha; Preemergence; 0 to 100 scale, 0 no injury, 100 complete control): 75
Green foxtail plant response rating [14, 23]: 100
Plant response rating, Green foxtail [14, 23]: 100
Green foxtail plant response rating [14, 24]: 100
Plant response rating, Green foxtail [14, 24]: 100
Plant response rating, Green foxtail ([14]; Rate 250 g/ha; Preemergence; 0 to 100 scale): 100
Plant response rating, Green foxtail [14, 25]: 100

CCn1c(=O)on(C(=O)N(c2ccccc2)C(C)C)c1=O [Compound 117]
Plant response rating, Alexandergrass [1, 21]: 90
Plant response rating, Alexandergrass [1, 22]: 90
Plant response rating, Alexandergrass ([1]; Rate 500 g/ha): 98
Plant response rating, C. ragweed [2, 21]: 0
Plant response rating, C. ragweed [2, 22]: 0
Plant response rating, C. ragweed ([2]; Rate 500 g/ha): 65
Plant response rating, Com. groundsel [3, 21]: 0
Plant response rating, Com. groundsel [3, 22]: 75
Plant response rating, Com. groundsel ([3]; Rate 500 g/ha): 100
Plant response rating, Dallisgrass [4, 21]: 85
Plant response rating, Dallisgrass [4, 22]: 95
Plant response rating, Dallisgrass ([4]; Rate 500 g/ha): 100
Plant response rating, Goosegrass [5, 21]: 85
Plant response rating, Goosegrass [5, 22]: 100
Plant response rating, Goosegrass ([5]; Rate 500 g/ha): 100
Plant response rating, Itchgrass [6, 21]: 40
Plant response rating, Itchgrass [6, 22]: 75
Plant response rating, Itchgrass ([6]; Rate 500 g/ha): 100
Plant response rating Johnsongrass [7, 21]: 90
Plant response rating Johnsongrass [7, 22]: 90
Plant response rating Johnsongrass ([7]; Rate 500 g/ha): 100
Plant response rating Large crabgrass [8, 21]: 98
Plant response rating Large crabgrass [8, 22]: 98
Plant response rating Large crabgrass ([8]; Rate 500 g/ha): 100
Purple nutsedge plant response rating [9, 21]: 0
Purple nutsedge plant response rating [9, 22]: 0
Plant response rating, Purple nutsedge ([9]; Rate 500 g/ha): 100
Sandbur plant response rating [10, 21]: 0
Sandbur plant response rating [10, 22]: 0
Plant response rating, Sandbur ([10]; Rate 500 g/ha): 100
Spanishneedles plant response rating [11, 21]: 0
Spanishneedles plant response rating [11, 22]: 0
Plant response rating, Spanishneedles ([11]; Rate 500 g/ha): 0
Surinam grass plant response rating [12, 21]: 80
Surinam grass plant response rating [12, 22]: 100
Plant response rating, Surinam grass ([12]; Rate 500 g/ha): 100
Plant response rating, Green foxtail ([13]; Rate 500 g/ha): 100
Green foxtail plant response rating [14, 23]: 100
Plant response rating, Green foxtail [14, 23]: 100
Green foxtail plant response rating [14, 24]: 100
Plant response rating, Green foxtail [14, 24]: 100
Plant response rating, Green foxtail [14, 25]: 100

Cc1cccc(Cl)c1-n1c(=O)on(C(=O)N(c2ccc(F)cc2)C(C)C)c1=O [Compound 53]
Plant response rating, Barnyardgrass ([15]; Postemergence, Rate 1000 g/ha): 3
Plant response rating, Barnyardgrass ([15]; Pre-emergence, Rate 2000 g/ha): 8
Plant response rating, Crabgrass ([16]; Postemergence, Rate 1000 g/ha): 6
Plant response rating, Crabgrass ([16]; Pre-emergence, Rate 2000 g/ha): 9
Plant response rating, Morningglory ([17]; Postemergence, Rate 1000 g/ha): 0
Plant response rating, Morningglory ([17]; Pre-emergence, Rate 2000 g/ha): 0
Plant response rating, Velvetleaf ([18]; Postemergence, Rate 1000 g/ha): 1
Plant response rating, Velvetleaf ([18]; Pre-emergence, Rate 2000 g/ha): 0
